Assays:
[1] = system: Rhizoctonia solani (RHIZSO); assay: microbe, parasite or virus in culture; assay type: cell-based; conditions: Rhizoctonia solani, read-out: RHIZSO in vitro Growth Inhibition
[2] = system: Phytophthora infestans—PHYTIN; assay: whole plant or invertebrate; assay type: in vivo; conditions: Phytophthora, in Solanum lycopersicum, 24 h, read-out: PHYTIN in vivo 1 Day Protectant
[3] = system: Phytophthora infestans (PHYTIN); assay: microbe, parasite or virus in culture; assay type: cell-based; conditions: Phytophthora infestans, read-out: PHYTIN in vitro Growth Inhibition
Septoria tritici—SEPTTR = assay: Leaf Blotch of Wheat, in vivo whole plant, 24 Hour Protectant; conditions: Zymoseptoria tritici, 24 h, 100 ppm spray, wheat, 24 hour protectant; control of fungal infection vs untreated plants; read-out: SEPTTR in vivo 1 Day Protectant
[4] = system: Stagonospora nodorum (Leptosphaeria nodorum—LEPTNO); assay: In vitro fungal growth inhibition, Stagonospora nodorum (LEPTNO); assay type: cell-based; conditions: Leptosphaeria; 25 ppm in growth medium; read-out: LEPTNO in vitro Growth Inhibition
Erysiphe graminis—ERYSGT = assay: Powdery Mildew of Wheat, in vivo whole plant, 24 Hour Protectant; conditions: Erysiphe; 100 ppm spray, wheat, 24 hour protectant; control of fungal infection vs untreated plants; read-out: ERYSGT in vivo 1 Day Protectant
Ustilago maydis (USTIMA) = assay: microbe, parasite or virus in culture; assay type: cell-based; conditions: Mycosarcoma maydis, read-out: USTIMA in vitro Growth Inhibition
[5] = system: Puccinia recondita—PUCCRT; assay: Brown Rust of Wheat, in vivo whole plant, 24 Hour Protectant; conditions: Puccinia; 100 ppm spray, wheat, 24 hour protectant; control of fungal infection vs untreated plants; read-out: PUCCRT in vivo 1 Day Protectant
[6] = system: Mycosphaerella graminicola (Septoria tritici—SEPTTR); assay: In vitro fungal growth inhibition, Mycosphaerella graminicola (SEPTTR); assay type: cell-based; conditions: Zymoseptoria tritici; 25 ppm in growth medium; read-out: SEPTTR in vitro Growth Inhibition
[7] = system: Magnaporthe grisea (Pyricularia oryzae—PYRIOR); assay: microbe, parasite or virus in culture; assay type: cell-based; conditions: Pyricularia oryzae, read-out: PYRIOR in vitro Growth Inhibition
[8] = system: Leptosphaeria nodorum—LEPTNO; assay: Glume Blotch of Wheat, in vivo whole plant, 24 Hour Protectant; conditions: 100 ppm spray, wheat, 24 hour protectant, control of fungal infection vs untreated plants; for pest or weed control at 100 ppm: Leptosphaeria, read-out: LEPTNO in vivo 1 Day Protectant

| Structure (SMILES) | inhibition at 25 ppm [1] [%] | pest or weed control at 100 ppm [2] [%] | inhibition at 25 ppm [3] [%] | pest or weed control at 100 ppm (Septoria tritici—SEPTTR) [%] | inhibition at 25 ppm [4] [%] | pest or weed control at 100 ppm (Erysiphe graminis—ERYSGT) [%] | inhibition at 25 ppm (Ustilago maydis (USTIMA)) [%] | pest or weed control at 100 ppm [5] [%] | inhibition at 25 ppm [6] [%] | inhibition at 25 ppm [7] [%] | LEPTNO in vivo 1 Day Protectant [8] | pest or weed control at 100 ppm [8] [%] |
| --- | --- | --- | --- | --- | --- | --- | --- | --- | --- | --- | --- | --- |
| CO/N=C(/c1ccc(NC(=O)c2nccc(OC)c2O)cc1)c1ccc(C(F)(F)F)cc1 [Compound 409] | < 80 | 25 to 74 | > 80 | 25 to 74 | > 80 | 25 to 74 | < 80 | 25 to 74 | > 80 | > 80 | + + |  |
| COc1ccnc(C(=O)Nc2ccccc2Oc2ccc(C)cc2)c1O [Compound 411] | < 80 | < 25 | < 80 | < 25 | > 80 | < 25 | < 80 | < 25 | > 80 | < 80 |  | < 25 |
| COc1ccnc(C(=O)Nc2cccc(Oc3ccccc3C)c2)c1O [Compound 412] | < 80 | < 25 | < 80 | < 25 | > 80 | < 25 | < 80 | 25 to 74 | > 80 | > 80 |  | < 25 |
| COc1ccnc(C(=O)Nc2cccc(Oc3cccc(C)c3)c2)c1O [Compound 413] | < 80 | 25 to 74 | < 80 | < 25 | > 80 | < 25 | < 80 | 25 to 74 | > 80 | > 80 |  | < 25 |
| COc1ccnc(C(=O)Nc2cccc(Oc3ccc(C)cc3)c2)c1O [Compound 414] | < 80 | 25 to 74 | < 80 | < 25 | > 80 | < 25 | < 80 | 25 to 74 | > 80 | > 80 |  | < 25 |
| COc1ccnc(C(=O)Nc2ccc(Oc3ccccc3C)cc2)c1O [Compound 415] | < 80 | < 25 | < 80 | < 25 | < 80 | 25 to 74 | < 80 | 25 to 74 | > 80 | < 80 |  | < 25 |
| COc1ccnc(C(=O)Nc2ccc(Oc3cccc(C)c3)cc2)c1O [Compound 416] | < 80 | < 25 | < 80 | < 25 | < 80 | < 25 | < 80 | 25 to 74 | > 80 | > 80 |  | < 25 |
| COc1ccnc(C(=O)Nc2ccc(Oc3ccc(C)cc3)cc2)c1O [Compound 417] | < 80 | < 25 | < 80 | < 25 | < 80 | < 25 | < 80 | < 25 | > 80 | > 80 | + + |  |
| COc1ccnc(C(=O)Nc2ccccc2Oc2ccccc2C#N)c1O [Compound 418] | < 80 | < 25 | < 80 | < 25 | < 80 | < 25 | < 80 | 25 to 74 | < 80 | < 80 |  | < 25 |
| COc1ccnc(C(=O)Nc2ccccc2Oc2ccc(C#N)cc2)c1O [Compound 419] | < 80 | 25 to 74 | < 80 | < 25 | < 80 | < 25 | < 80 | < 25 | < 80 | < 80 |  | < 25 |
| COc1ccnc(C(=O)Nc2ccc(Oc3ccccc3C#N)cc2)c1O [Compound 420] | < 80 | < 25 | < 80 | < 25 | < 80 | < 25 | < 80 | < 25 | < 80 | < 80 |  | 25 to 74 |
| COc1ccnc(C(=O)Nc2ccc(Oc3cccc(C#N)c3)cc2)c1O [Compound 421] | < 80 | < 25 | < 80 | < 25 | < 80 | < 25 | < 80 | < 25 | < 80 | < 80 |  | 25 to 74 |
| COc1ccnc(C(=O)Nc2ccc(Oc3ccc(C#N)cc3)cc2)c1O [Compound 422] | < 80 | 25 to 74 | < 80 | < 25 | < 80 | < 25 | < 80 | < 25 | < 80 | > 80 |  | < 25 |
| COc1ccnc(C(=O)Nc2cccc(Oc3ccc(C(F)(F)F)cc3)c2)c1O [Compound 423] | < 80 | < 25 | < 80 | 25 to 74 | < 80 | < 25 | < 80 | 25 to 74 | < 80 | > 80 |  | 25 to 74 |
| COc1ccnc(C(=O)Nc2ccc(Oc3cccc(C(F)(F)F)c3)cc2)c1O [Compound 424] | < 80 | 25 to 74 | < 80 | 25 to 74 | > 80 | 25 to 74 | < 80 | 25 to 74 | < 80 | < 80 |  | 25 to 74 |
| COc1ccnc(C(=O)Nc2ccc(Oc3ccc(C(F)(F)F)cc3)cc2)c1O [Compound 425, 3-HYDROXY-4-METHOXY-N-(4-(4-TRIFLUOROMETHYLPHENOXY)PHENYL)-PYRIDINE-2-CARBOXAMIDE] | > 80 | 25 to 74 | < 80 | 25 to 74 | > 80 | < 25 | < 80 | 25 to 74 | > 80 | > 80 |  | < 25 |
| COc1cccc(Oc2ccccc2NC(=O)c2nccc(OC)c2O)c1 [Compound 428] | < 80 | < 25 | < 80 | < 25 | < 80 | < 25 | < 80 | < 25 | > 80 | > 80 |  | < 25 |
| COc1ccc(Oc2ccccc2NC(=O)c2nccc(OC)c2O)cc1 [Compound 429] | < 80 | < 25 | < 80 | < 25 | < 80 | < 25 | < 80 | < 25 | > 80 | < 80 |  | < 25 |
| COc1ccccc1Oc1cccc(NC(=O)c2nccc(OC)c2O)c1 [Compound 430] | < 80 | 25 to 74 | < 80 | < 25 | < 80 | < 25 | < 80 | < 25 | < 80 | < 80 |  | < 25 |

— patent US6706740B2, “Fungicidal heterocyclic aromatic amides and their compositions, methods of use and preparation” (Dow AgroSciences LLC, priority 1999, dated 2004)
